In patent US11548888B2, “KRas G12C inhibitors” (Mirati Therapeutics, Inc., priority 2019, dated 2023):

Target: T1, KRas G12C (Homo sapiens, UniProt P01116, G12C)
T1 construct: NCI-H358 cells (ATCC CRL-5807) express KRas G12C
Assay: Inhibition of KRas G12C-dependent cell growth: Phospho-ERK in NCI-H358 cells
Type: cell-based
Conditions: NCI-H358 cells expressing KRas G12C; Phospho-ERK (Thr202/Tyr204) normalized to GAPDH; 3 hours compound; 4 parameter fit
Outline: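 Phospho-ERK read-out in KRas G12C-expressing NCI-H358 cells after 3 h compound treatment (final DMSO 0.5%), by in-cell infrared immunodetection. Signal normalized to GAPDH and to DMSO controls. 4-parameter curve fit gave IC50.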

T1 sequence (P01116 1-188 isoform P01116-2 G12C): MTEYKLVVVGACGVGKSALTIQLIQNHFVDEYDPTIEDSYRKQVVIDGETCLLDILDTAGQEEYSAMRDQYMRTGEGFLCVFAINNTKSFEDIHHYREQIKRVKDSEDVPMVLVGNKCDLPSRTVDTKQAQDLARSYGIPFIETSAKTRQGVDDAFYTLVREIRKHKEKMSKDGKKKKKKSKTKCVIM

Compound | IC50 [nM]
C=CC(=O)N1CCN(c2ncnc3c(F)c(-c4cccc5ccc(F)c(Cl)c45)ncc23)C[C@@H]1CC#N [Example 109] | 21
COC/C=C/C(=O)N1CCN(c2ncnc3c(F)c(-c4cccc5ccc(F)c(Cl)c45)ncc23)C[C@@H]1CC#N [Example 110] | 725
C=C(F)C(=O)N1CCN(c2ncnc3c(F)c(-c4cccc5cccc(C)c45)ncc23)C[C@@H]1CC#N [Example 111] | 3920
N#CC[C@H]1CN(c2ncnc3c(F)c(-c4cccc5ccc(F)c(Cl)c45)ncc23)CCN1C(=O)/C=C/CF [Example 112] | 218
C=C(F)C(=O)N1CCN(c2nc(OC[C@@H]3C[C@@H](OC)CN3C)nc3c(F)c(-c4cccc5ccc(F)c(Cl)c45)ncc23)C[C@@H]1CC#N [Example 113] | 13
C=C(F)C(=O)N1CCN(c2nc(OCC34CCCN3CCC4)nc3c(F)c(-c4cccc5ccc(F)c(Cl)c45)ncc23)C[C@@H]1CC#N [Example 114] | 2
N#CC[C@H]1CN(c2ncnc3c(F)c(-c4cccc5ccc(F)c(Cl)c45)ncc23)CCN1C(=O)/C=C/C(F)F [Example 115] | 76
C=C(F)C(=O)N1CCN(c2nc(OC[C@@H]3C[C@@H](F)CN3C(C)C)nc3c(F)c(-c4cccc5ccc(F)c(Cl)c45)ncc23)C[C@@H]1CC#N [Example 116] | 31
C=C(F)C(=O)N1CCN(c2nc(OC[C@@H]3C[C@@H](OC)CN3C(C)C)nc3c(F)c(-c4cccc5ccc(F)c(Cl)c45)ncc23)C[C@@H]1CC#N [Example 117] | 18
C=C(F)C(=O)N1CCN(c2nc(OC[C@@H]3CC(F)(F)CN3C(C)C)nc3c(F)c(-c4cccc5ccc(F)c(Cl)c45)ncc23)C[C@@H]1CC#N [Example 118] | 329
C=CC(=O)N1CCN(c2nc(OC[C@@H]3CCCN3C)nc3c(F)c(-c4cccc5ccc(F)c(Cl)c45)ncc23)[C@@H](C)C1 [Example 119] | 39
C=C(F)C(=O)N1CCN(c2nc(OCCNS(C)(=O)=O)nc3c(F)c(-c4cccc5ccc(F)c(Cl)c45)ncc23)C[C@@H]1CC#N [Example 120] | 976
C=C(F)C(=O)N1CCN(c2nc(OC[C@@H]3CCCN3C(C)C)nc3c(F)c(-c4cccc5ccc(F)c(Cl)c45)ncc23)C[C@@H]1CC#N [Example 121] | 63
C=CC(=O)N1CCN(c2nc(C)nc3c(F)c(-c4cccc5ccc(F)c(Cl)c45)ncc23)C[C@@H]1CC#N [Example 122] | 32
C=CC(=O)N1CCN(c2ncnc3c(F)c(-c4cccc5ccc(F)c(Cl)c45)ncc23)[C@@H](C)C1 [Example 123] | 3960
C=C(F)C(=O)N1CCN(c2nc(OCc3ccn[nH]3)nc3c(F)c(-c4cccc5ccc(F)c(Cl)c45)ncc23)C[C@@H]1CC#N [Example 124] | 1770
C=C(F)C(=O)N1CCN(c2nc(OC[C@@H]3CCCN3C(C)C)nc3c(F)c(-c4cccc5cccc(Cl)c45)ncc23)C[C@@H]1CC#N [Example 125] | 42
C=C(F)C(=O)N1CCN(c2nc(OC[C@@H]3C[C@@H](F)CN3C)nc3c(F)c(-c4cccc5ccc(F)c(Cl)c45)ncc23)C[C@@H]1CC#N [Example 126] | 15
C=C(F)C(=O)N1CCN(c2nc(OCC3CN(C)C3)nc3c(F)c(-c4cccc5ccc(F)c(Cl)c45)ncc23)C[C@@H]1CC#N [Example 127] | 243
C=C(F)C(=O)N1CCN(c2nc(OC[C@@H]3CCCN3CC)nc3c(F)c(-c4cccc5ccc(F)c(Cl)c45)ncc23)C[C@@H]1CC#N [Example 128] | 15

Compound | IC50 [nM]
C=C(F)C(=O)N1CCN(c2nc(OCCCN3C[C@@H]4C[C@H]3CO4)nc3c(F)c(-c4cccc5ccc(F)c(Cl)c45)ncc23)C[C@@H]1CC#N [Example 129] | 73
C=C(F)C(=O)N1CCN(c2nc(OCC3CCN3C(C)C)nc3c(F)c(-c4cccc5ccc(F)c(Cl)c45)ncc23)C[C@@H]1CC#N (some centres unmarked) [Example 130] | 26
C=CC(=O)N1C2CCC1CN(c1ncnc3c(F)c(-c4cccc5ccc(F)c(Cl)c45)ncc13)C2 [Example 131] | 10000
C=C(F)C(=O)N1CCN(c2nc(OCCc3nccn3C)nc3c(F)c(-c4cccc5ccc(F)c(Cl)c45)ncc23)C[C@@H]1CC#N [Example 132] | 145
C=CC(=O)N1CCN(c2ncnc3c(F)c(-c4cccc5ccc(F)c(Cl)c45)ncc23)[C@H](C)C1 [Example 133] | 10000
C=CC(=O)N1CCN(c2ncnc3c(F)c(-c4cccc5ccc(F)c(Cl)c45)ncc23)CC1 [Example 134] | 10000
C=CC(=O)N1CCN(c2ncnc3c(F)c(-c4cccc5ccc(F)c(Cl)c45)ncc23)CC1C#N (centres unmarked) [Example 135] | 6050
C=CC(=O)N1CCN(c2nc(OC)nc3c(F)c(-c4cccc5ccc(F)c(Cl)c45)ncc23)C[C@@H]1CC#N [Example 136] | 92
C=CC(=O)N1CCN(c2ncnc3c(F)c(-c4cccc5cccc(Cl)c45)ncc23)CC1 [Example 137] | 3350
C=CC(=O)N1CCC2(C1)CN(c1ncnc3c(F)c(-c4cccc5ccc(F)c(Cl)c45)ncc13)C2 [Example 138] | 7170
C=C(F)C(=O)N1CCN(c2nc(OCC3CCN3CC)nc3c(F)c(-c4cccc5ccc(F)c(Cl)c45)ncc23)C[C@@H]1CC#N (some centres unmarked) [Example 139] | 37
C=C(F)C(=O)N1CCN(c2nc(OC[C@@H]3CCCN3C3CCC3)nc3c(F)c(-c4cccc5ccc(F)c(Cl)c45)ncc23)C[C@@H]1CC#N [Example 140] | 14
C=CC(=O)N1CCN(c2nc(OC[C@@H]3CCCN3C)nc3c(F)c(-c4cccc5ccc(F)c(Cl)c45)ncc23)C[C@@H]1C [Example 141] | 50
C=C(F)C(=O)N1CCN(c2nc(OCc3cc4ncccc4[nH]3)nc3c(F)c(-c4cccc5ccc(F)c(Cl)c45)ncc23)C[C@@H]1CC#N [Example 142] | 1250
C=C(F)C(=O)N1CCN(c2nc(OCC34CCCN3CCOC4)nc3c(F)c(-c4cccc5ccc(F)c(Cl)c45)ncc23)C[C@@H]1CC#N (some centres unmarked) [Example 144] | 35
C=C(F)C(=O)N1CCN(c2nc(OCC34CCCN3C[C@H](F)C4)nc3c(F)c(-c4cccc5ccc(F)c(Cl)c45)ncc23)C[C@@H]1CC#N (some centres unmarked) [Example 145] | 2
C=CC(=O)N1[C@@H](C)CN(c2ncnc3c(F)c(-c4cccc5ccc(F)c(Cl)c45)ncc23)C[C@@H]1C [Example 146] | 10000
C=C(F)C(=O)N1CCN(c2nc(OC[C@@H]3CCCN3C)nc3c(F)c(-c4cccc5ccc(Cl)c(Cl)c45)ncc23)C[C@@H]1CC#N [Example 147] | 23
C=CC(=O)N1C[C@H](C)N(c2ncnc3c(F)c(-c4cccc5ccc(F)c(Cl)c45)ncc23)[C@@H](C)C1 [Example 148] | 6280
C=CC(=O)N1C[C@@H](C)N(c2ncnc3c(F)c(-c4cccc5ccc(F)c(Cl)c45)ncc23)[C@@H](C)C1 [Example 149] | 10000

Compound | IC50 [nM]
C=CC(=O)N1CCN(c2ncnc3c(F)c(-c4cccc5ccc(F)c(Cl)c45)ncc23)C(CC#N)C1 (centres unmarked) [Example 150] | 10000
C=C(F)C(=O)N1CCN(c2nc(OCC3COC3)nc3c(F)c(-c4cccc5ccc(F)c(Cl)c45)ncc23)C[C@@H]1CC#N [Example 151] | 256
C=CC(=O)N1CCN(c2nc(OC[C@@H]3CCCN3C)nc3c(F)c(-c4cccc5ccc(F)c(Cl)c45)ncc23)C[C@H]1C [Example 152] | 322
C=CC(=O)N1CCN(c2nc(C)nc3c(F)c(-c4cccc5cccc(Cl)c45)ncc23)CC1 [Example 153] | 10000
C=C(F)C(=O)N1CCN(c2nc(OCC3(C)COC3)nc3c(F)c(-c4cccc5ccc(F)c(Cl)c45)ncc23)C[C@@H]1CC#N [Example 154] | 221
C=CC(=O)N1CCN(c2nc(OC[C@@H]3CCCN3C)nc3c(F)c(-c4cccc5ccc(F)c(Cl)c45)ncc23)[C@H](C)C1 [Example 155] | 585
C=C(F)C(=O)N1CCN(c2nc(OCC3CCO3)nc3c(F)c(-c4cccc5ccc(F)c(Cl)c45)ncc23)C[C@@H]1CC#N (some centres unmarked) [Example 156] | 134
C=C(F)C(=O)N1CCN(c2nc(OC[C@@H]3CCCN3C)nc3c(F)c(-c4cccc5ccc(F)c(F)c45)ncc23)C[C@@H]1CC#N [Example 157] | 23
C=C(F)C(=O)N1CCN(c2nc(OC[C@H]3CN(C)CCO3)nc3c(F)c(-c4cccc5ccc(F)c(Cl)c45)ncc23)C[C@@H]1CC#N [Example 158] | 68
C=CC(=O)N1CC2(C1)CN(c1ncnc3c(F)c(-c4cccc5ccc(F)c(Cl)c45)ncc13)C2 [Example 159] | 10000
C=C(F)C(=O)N1CCN(c2nc(OCC3(C)CCN3C)nc3c(F)c(-c4cccc5ccc(F)c(Cl)c45)ncc23)C[C@@H]1CC#N (some centres unmarked) [Example 161] | 11
C=C(F)C(=O)N1CCN(c2ncnc3c(F)c(-c4cc(O)cc5ccccc45)ncc23)C[C@@H]1CC#N [Example 162] | 590
C=CC(=O)N1CCN(c2nc(OC[C@@H]3CCCN3C)nc3c(F)c(-c4cccc5ccc(F)c(Cl)c45)ncc23)CC1C(F)(F)F (some centres unmarked) [Example 163] | 110
C=CC(=O)N1CCN(c2nc(OC[C@@H]3CCCN3C)nc3c(F)c(-c4cccc5ccc(F)c(Cl)c45)ncc23)CC1CF (some centres unmarked) [Example 164] | 153
C=CC(=O)N1CCN(c2nc(OC[C@@H]3CCCN3C)nc3c(F)c(-c4cccc5ccc(F)c(Cl)c45)ncc23)CC1C(F)F (some centres unmarked) [Example 165] | 158
C=C(F)C(=O)N1CCN(c2nc(OC[C@@H]3C[C@H](F)CN3C)nc3c(F)c(-c4cccc5ccc(F)c(Cl)c45)ncc23)C[C@@H]1CC#N [Example 166] | 26
C=C(F)C(=O)N1CCN(c2nc(OC[C@H]3C[C@@H](F)CN3C)nc3c(F)c(-c4cccc5ccc(F)c(Cl)c45)ncc23)C[C@@H]1CC#N [Example 167] | 60
C=C(F)C(=O)N1CCN(c2nc(OC[C@H]3[C@H](F)CCN3C)nc3c(F)c(-c4cccc5ccc(F)c(Cl)c45)ncc23)C[C@@H]1CC#N [Example 168] | 65
C=C(F)C(=O)N1CCN(c2nc(OC[C@@H]3CCN(C)C3)nc3c(F)c(-c4cccc5ccc(F)c(Cl)c45)ncc23)C[C@@H]1CC#N [Example 169] | 60
